Columns and labels:
Type in all cases: in vivo
Tetranychus urticae = Tetranychus urticae test; OP-resistant (TETRUR spray application); conditions: 120 h, spray on infested French beans, after 5 days
Experimental: Tetranychus urticae—Test; OP-Resistant (TETRUR Spray Application)
(§1) Solvent: 78.0 parts by weight acetone • 1.5 parts by weight dimethylformamide
(§2) Emulsifier: 0.5 parts by weight alkylarylpolyglycolether
To produce a suitable preparation of active compound, 1 part by weight of active compound is mixed with the stated amount of solvent and emulsifier, and the concentrate is diluted with emulsifier-containing water to the desired concentration. French beans (Phaseolus vulgaris) which are heavily infested with all stages of the two spotted spidermite (Tetranychus urticae), are sprayed with a preparation of the active ingredient at the desired concentration.
After 5 days mortality in % is determined. 100% means that all spider mites have been killed and 0% means that none of the spider mites have been killed.

Spodoptera frugiperda = Spodoptera frugiperda test (SPODFR spray application); conditions: 168 h, sprayed maize leaf sections, after 7 days
Source text: Spodoptera frugiperda—Test (SPODFR Spray Application)
as §1, §2
To produce a suitable preparation of the active compound, 1 part by weight of active compound is mixed with the stated amount of solvent and emulsifier, and the concentrate is dilutes with emulsifier-containing water to the desired concentration. Maize (Zea mais) leaf sections are sprayed with a preparation of the active ingredient of the desired concentration. Once dry, the leaf sections are infested with fall armyworm larvae (Spodoptera frugiperda).
After 7 days mortality in % is determined. 100% means that all caterpillars have been killed and 0% means that none of the caterpillars have been killed.

Phaedon cochleariae = Phaedon cochleariae test (PHAECO spray application); conditions: 168 h, sprayed Chinese cabbage leaf-disks, after 7 days
Experimental: Phaedon cochleariae—Test; (PHAECO Spray Application)
Solvent: 78.0 parts by weight of acetone • • 1.5 parts by weight of dimethylformamide
Emulsifier: 0.5 parts by weight of alkylaryl polyglycolether
To produce a suitable preparation of active compound, 1 part by weight of active compound is mixed with the stated amount of solvent and emulsifier, and the concentrate is diluted with emulsifier-containing water to the desired concentration. Chinese cabbage (Brassica pekinesis) leaf-disks are sprayed with a preparation of the active ingredient of the desired concentration. Once dry, the leaf disks are infested with mustard beetle larvae (Phaedon cochleariae).
After 7 days mortality in % is determined. 100% means that all beetle larvae have been killed and 0% means that none of the beetle larvae have been killed.

Myzus persicae = Myzus persicae test (MYZUPE spray application); conditions: 144 h, sprayed Chinese cabbage leaf-disks, after 6 days
Experimental: Myzus persicae—Test; (MYZUPE Spray Application)
as §1, §2
To produce a suitable preparation of active compound, 1 part by weight of active compound is mixed with the stated amount of solvent and emulsifier, and the concentrate is diluted with emulsifier-containing water to the desired concentration. Chinese cabbage (Brassica pekinesis) leaf-disks infected with all instars of the green peach aphid (Myzus persicae), are sprayed with a preparation of the active ingredient at the desired concentration.
After 6 days mortality in % is determined. 100% means that all aphids have been killed; 0% means that none of the aphids have been killed.

Sphaerotheca fuliginea = assay: Sphaerotheca test (cucumber)/preventive; conditions: preventive, 7 days after inoculation
Experimental: Sphaerotheca Test (Cucumber)/Preventive
Solvent: 49 parts by weight of N,N-Dimethylformamide
Emulsifier: 1 part by weight of Alkylarylpolyglycolether
To produce a suitable preparation of active compound, 1 part by weight of active compound is mixed with the stated amounts of solvent and emulsifier, and the concentrate is diluted with water to the desired concentration.
To test for preventive activity, young plants are sprayed with the preparation of active compound at the stated rate of application. One day after this treatment, the plants are inoculated with an aqueous spore suspension of Sphaerotheca fuliginea. Then the plants are placed in a greenhouse at approximately 23° C. and a relative atmospheric humidity of approximately 70%.
The test is evaluated 7 days after the inoculation. 0% means an efficacy which corresponds to that of the control, while an efficacy of 100% means that no disease is observed.

Row | SMILES | mortality at 500 g/ha (Tetranychus urticae; 500 g/ha) [%] | mortality at 500 g/ha (Spodoptera frugiperda; 500 g/ha) [%] | mortality at 500 g/ha (Phaedon cochleariae) [%] | mortality at 500 g/ha (Myzus persicae) [%] | Efficacy in % (Sphaerotheca fuliginea; 500 ppm) [%] | mortality at 20 g/ha (Tetranychus urticae; 20 g/ha) [%] | mortality at 100 g/ha (Spodoptera frugiperda; 100 g/ha) [%] | Efficacy in % (Sphaerotheca fuliginea; 250 ppm) [%]
1 | Cc1ccc(-c2ccc(Cl)cc2)cc1C1=C(O)[C@H]2CC[C@H](C2)C1=O [Compound T1] | ≥ 80 | ≥ 80 | ≥ 80 | ≥ 80 | 95 |  |  | 
2 | CC12CCC(C(=O)C(c3cc(-c4ccc(Cl)cc4)ccc3Cl)=C1O)C2(C)C (stereo not drawn) [T 114] |  |  |  |  | 90 | ≥ 80 |  | 
3 | Cc1ccc(-c2ccc(Cl)cc2)cc1C1=C(O)C2(C)CCC(C1=O)C2(C)C (stereo not drawn) [T 115] |  |  |  |  |  |  | ≥ 80 | 80

Reference: patent US20110275813A1, “Bicylic 1,3-diones and Their Use as Insecticides, Acaricides and/or Fungicides” (Bayer Cropscience AG, priority 2009, published 2011)
